# Laboratory results taken from paper PMC10726347, “Discovery of Inhibitory Fragments That Selectively Target Spire2–FMN2 Interaction” (Journal of Medicinal Chemistry, 2023).
# pIC50: −log10 of the molar value. Where two headings read alike, the source gives them in different places.
# Legend:
# KIND2 [1] = target: T1, KIND2 (Homo sapiens, UniProt Q8WWL2); test: FP competition assay with FITC-labeled FSI peptide, KIND2; assay type: binding; set-up: His6 (N, cleaved yes); made in house; host or cells: E. coli BL21 (DE3); details: for pIC50: FP competition; for KIND2/FSI inhibitory activity in words: FP assay
# T1 sequence (Q8WWL2 18-207): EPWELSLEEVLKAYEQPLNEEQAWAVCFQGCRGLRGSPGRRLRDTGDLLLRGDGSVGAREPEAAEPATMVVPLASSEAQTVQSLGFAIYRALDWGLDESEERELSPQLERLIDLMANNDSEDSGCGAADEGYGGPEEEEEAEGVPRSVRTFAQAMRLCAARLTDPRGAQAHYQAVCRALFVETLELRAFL
# Procedure: (§1) The probe was diluted in the buffer assay (25 mM Tris, pH 7.8, 100 mM NaCl, 2 mM DTT) and added to the preplated mixtures of protein/fragment solutions. […] Each experiment was performed in triplicate with four technical replications.
# (§2) Establishment of fluorescence polarization assay
# (§3) The establishment of the fluorescence polarization assay was done according to protocols […]
# (§4) In the first step, the affinity of the fluorescently labelled reporter peptide (FSI-peptide, FITC- […]
# (§5) concentrations of KIND1 or KIND2 domains. This yielded dose-response curves that allow us to calculate the Kd of FSI-peptide.
# (§6) In the next step, the working concentration of the proteins was calculated. Typically, the concentration should be in a dynamic range (0.5-0.8). For calculations, the following equation f0 = (P − Pmin)/(Pmax − Pmin)
# (§7) P – fluorescence polarization in the dynamic range (0.5 -0.8) , Pmin – average minimal fluorescence polarization, Pmax – average maximal fluorescence polarization,
# (§8) Taking into account Kd values for the reporter peptide, the working concentration of the proteins were calculated as follows:
# (§9) c = Kd(P − Pmin)/(Pmax − P) […]
# KIND2 [2] = target: T1, KIND2; test: Differential scanning fluorimetry (DSF) thermal shift, KIND2
# KIND1 [3] = target: T2, KIND1 (Homo sapiens, UniProt Q08AE8); test: FP competition assay with FITC-labeled FSI peptide, KIND1; assay type: binding; details: 2.44-2500 μM, 1.17 μM KIND1
# T2 construct: His6 (N, cleaved yes); made in house; host or cells: E. coli BL21 (DE3)
# Procedure: as §1, §2, §3, §4, §5, §6, §7, §8, §9
# KIND1 [4] = target: T2, KIND1; test: Differential scanning fluorimetry (DSF) thermal shift, KIND1; assay type: binding; details: 1 mM fragment, 2% DMSO
# KIND1 [5] = target: T2, KIND1; test: Binding to KIND1 (method not given)
# [6] = 2.44-2500 μM, 2.49 μM KIND2, read-out: KIND2 IC50
# T2 sequence (Q08AE8 36-236): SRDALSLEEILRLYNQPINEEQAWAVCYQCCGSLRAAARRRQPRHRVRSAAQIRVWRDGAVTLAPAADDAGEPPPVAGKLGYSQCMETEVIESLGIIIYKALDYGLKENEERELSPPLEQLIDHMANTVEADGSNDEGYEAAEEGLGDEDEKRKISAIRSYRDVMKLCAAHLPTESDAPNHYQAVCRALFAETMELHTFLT
Compound,"pIC50 (KIND2 [1]; Table 2, KIND2, read-out: IC50)",ΔTm at 1000 µM (KIND2 [2]; read-out: ΔTm) [°C],pIC50 (KIND1 [3]),pIC50 (KIND2 [1]; [6]),further results
"Cc1ccc2c(NCCN)ccnc2c1 [compound 10, N^1-(7-Methylquinolin-4-yl)ethane-1,2-diamine]",< 2.60,2,,,
"N[C@@H]1CCN(c2ccnc3cc(Cl)ccc23)C1 [compound 4, (R)-1-(7-Chloroquinolin-4-yl)pyrrolidin-3-amine]",,,< 2.60,< 2.60,
"N[C@H]1CCCN(c2ccnc3cc(Cl)ccc23)C1 [compound 5, (3S)-1-(7-Chloroquinolin-4-yl)piperidin-3-amine]",,,< 2.60,< 2.60,
"NCCNc1ccnc2cc(OCc3ccccc3)ccc12 [compound 16, N^1-[7-(Benzyloxy)quinolin-4-yl]ethane-1,2-diamine]",< 2.60,0,,,
Clc1ccc2c(N3CCNCC3)ccnc2c1 [F671],,,< 2.60,< 2.60,KIND2/FSI inhibitory activity in words (KIND2 [1]): complete drop in potency; ΔTm at 1000 µM (KIND1 [4]): -1 °C; ΔTm at 1000 µM (KIND2 [2]; read-out: KIND2 ΔTm): -2 °C
"Clc1ccc2c(N[C@@H]3CCCNC3)ccnc2c1 [compound 8, (R)-7-Chloro-N-(piperidin-3-yl)quinolin-4-amine]",,,< 2.60,< 2.60,
"NCCNc1ccnc2c(Cl)cccc12 [compound 17, N^1-(8-Chloroquinolin-4-yl)ethane-1,2-diamine]",< 2.60,0.8,,,KIND2/FSI inhibitory activity in words (KIND2 [1]): complete loss of activity
"NCCNc1ccnc2cc(Br)ccc12 [compound 11, N^1-(7-Bromoquinolin-4-yl)ethane-1,2-diamine]",< 2.60,1.2,,,
"NCCNc1ccnc2cc(C(F)(F)F)ccc12 [compound 9, N^1-(7-(Trifluoromethyl)quinolin-4-yl)ethane-1,2-diamine]",< 2.60,-0.4,,,
"OCCNc1ccnc2cc(Cl)ccc12 [compound 1, 2-((7-Chloroquinolin-4-yl)amino)ethan-1-ol]",,,< 2.60,< 2.60,
"NCCNc1ccnc2cc(Oc3ccccc3)ccc12 [compound 15, N^1-(7-Phenoxyquinolin-4-yl)ethane-1,2-diamine]",< 2.60,-0.1,,,
"N[C@H]1CCN(c2ccnc3cc(Cl)ccc23)C1 [compound 3, (S)-1-(7-Chloroquinolin-4-yl)pyrrolidin-3-amine]",,,< 2.60,< 2.60,
"N[C@@H]1CCCN(c2ccnc3cc(Cl)ccc23)C1 [compound 6, (3R)-1-(7-Chloroquinolin-4-yl)piperidin-3-amine]",,,< 2.60,< 2.60,
"NCCNc1ccnc2c(F)cccc12 [compound 18, N^1-(8-Fluoroquinolin-4-yl)ethane-1,2-diamine]",< 2.60,0.8,,,KIND2/FSI inhibitory activity in words (KIND2 [1]): complete loss of activity
"CN(C)CCNc1ccnc2cc(Cl)ccc12 [compound 2, N^1-(7-Chloroquinolin-4-yl)-N^2,N^2-dimethylethane-1,2-diamine]",,,< 2.60,< 2.60,KIND2/FSI inhibitory activity in words (KIND2 [1]): loss of potency
"Clc1ccc2c(N[C@H]3CCCNC3)ccnc2c1 [compound 7, (S)-7-Chloro-N-(piperidin-3-yl)quinolin-4-amine]",,,< 2.60,< 2.60,

# Second part, led by results:
"pIC50 (KIND2 [1]; Table 2, KIND2, read-out: IC50)",ΔTm at 1000 µM (KIND2 [2]; read-out: ΔTm) [°C],pIC50 (KIND1 [3]),pIC50 (KIND2 [1]; [6]),Compound,further results
,,< 2.60,,NCCCCNc1ccnc2cc(Cl)ccc12 [F667],
,,< 2.60,< 2.60,Nc1ccnc2cc(Cl)ccc12 [F668],ΔTm at 1000 µM (KIND1 [4]): -0.4 °C; ΔTm at 1000 µM (KIND2 [2]; read-out: KIND2 ΔTm): -1 °C
,,< 2.60,,"NCCNc1ccnc2cc(Cl)ccc12 [F408, N^1-(7-Chloroquinolin-4-yl)ethane-1,2-diamine]",binding to KIND1 (KIND1 [5]): did not bind
,,< 2.60,< 2.60,Clc1ccc2c(NCCCN3CCOCC3)ccnc2c1 [F669],KIND2/FSI inhibitory activity in words (KIND2 [1]): complete drop in potency; ΔTm at 1000 µM (KIND1 [4]): -0.5 °C; ΔTm at 1000 µM (KIND2 [2]; read-out: KIND2 ΔTm): -1 °C
,,< 2.60,< 2.60,OCCCNc1ccnc2cc(Cl)ccc12 [F410],KIND2/FSI inhibitory activity in words (KIND2 [1]): complete loss in activity; ΔTm at 1000 µM (KIND1 [4]): -0.4 °C; ΔTm at 1000 µM (KIND2 [2]; read-out: KIND2 ΔTm): -0.5 °C
,,< 2.60,,CN(C)CCCNc1ccnc2cc(Cl)ccc12 [F666],
,,< 2.60,,NCCCNc1ccnc2cc(Cl)ccc12 [F409],
